Reference: ChEMBL document CHEMBL1144036, “Bornyl (3,4,5-trihydroxy)-cinnamate--an optimized human neutrophil elastase inhibitor designed by free energy calculations” (Bioorg Med Chem, 2008)
pIC50: −log10 of the molar value.

Target: T1, Neutrophil elastase (Homo sapiens, UniProt P08246)
T1 sequence (P08246 whole entry): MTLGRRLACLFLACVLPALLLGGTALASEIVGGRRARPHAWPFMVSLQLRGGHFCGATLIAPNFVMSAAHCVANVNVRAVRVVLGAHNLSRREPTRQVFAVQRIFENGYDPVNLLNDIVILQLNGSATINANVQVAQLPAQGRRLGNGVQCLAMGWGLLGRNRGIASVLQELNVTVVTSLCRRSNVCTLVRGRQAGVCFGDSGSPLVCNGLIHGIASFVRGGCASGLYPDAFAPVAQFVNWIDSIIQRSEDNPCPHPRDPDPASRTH
Assay: Inhibition of human neutrophil elastase

pIC50	Compound
5.81	CC1(C)C2CC[C@]1(C)C(OC(=O)/C=C/c1ccc(O)c(O)c1)C2 (some centres not stated)
6.27	CC1(C)C2CC[C@]1(C)C(OC(=O)/C=C/c1cc(O)c(O)c(O)c1)C2 (some centres not stated)
